Reference: US11980596B2 (priority 2017, dated 2024)

Test system: subjects with MDD at imminent risk for suicide
[1] = esketamine 84 mg, double-blind phase, N = 35

Procedure: The study consisted of a screening evaluation performed within 24 hours (or up to 48 hours upon consultation with the Sponsor's medical monitor) prior to Day 1 dose, immediately followed by a 25-day double-blind treatment phase (Day 1 to 25) with twice a week dosing, and a 56-day follow up phase (Day 26 to Day 81). The study was designed as a POC study and therefore a two-sided 0.20 significance level was used.
Among 68 randomized subjects, 66 were included in the safety analysis set (defined as receiving at least one dose of study medication in the double-blind phase). […] All safety subjects (N=66) were included in the intent-to-treat (ITT) analysis set (defined as receiving at least one dose of study medication during the double-blind phase and having both the baseline and the Day 1, 4-hour postdose evaluation for the MADRS total score). Forty-nine subjects were included in the safety (FU) analysis set (defined as all subjects who have at least 1 visit during the follow up phase).

CN[C@]1(c2ccccc2Cl)CCCCC1=O [esketamine, (S)-2-(2-chlorophenyl)-2-(methylamino)cyclohexanone]
(20.0%): TEAE Eye disorders, % of subjects [1] | TEAE Vomiting, % of subjects [1]
1 (2.9%) subjects (%): Serious TEAE: Agitation [1] | Serious TEAE: Depressive symptom [1] | TEAE leading to study discontinuation: Aggression [1] | TEAE leading to study discontinuation: Agitation [1] | TEAE leading to study discontinuation: Cardiac disorders [1] | TEAE leading to study discontinuation: Dizziness [1]
4: TEAE Euphoric mood, no. subjects [1] | TEAE Somnolence, no. subjects [1] | TEAE Vertigo, no. subjects [1]
6: TEAE Anxiety, no. subjects [1] | TEAE Paresthesia, no. subjects [1] | TEAE Sedation, no. subjects [1]
11: TEAE Dissociation, no. subjects [1] | TEAE Dysgeusia, no. subjects [1] | TEAE Headache, no. subjects [1]
(11.4%): TEAE Euphoric mood, % of subjects [1] | TEAE Somnolence, % of subjects [1] | TEAE Vertigo, % of subjects [1]
(57.1%): TEAE Psychiatric disorders, % of subjects [1]
5 subjects: Discontinued from the double-blind phase due to (treatment-emergent) adverse events (84 mg)
5: TEAE Investigations, no. subjects [1] | TEAE Skin and subcutaneous tissue disorders, no. subjects [1]
13: TEAE Nausea, no. subjects [1]
25: TEAE Nervous system disorders, no. subjects [1]
2 (5.7%) subjects (%): Serious TEAE: Suicidal ideation [1]
19: TEAE Gastrointestinal disorders, no. subjects [1]
5 (13.9%) subjects (%): Withdrawn from double-blind phase: Adverse event (esketamine 84 mg, all randomized analysis set, N = 36)
20.0%: TEAE: vomiting (84 mg, double-blind phase)
4 (11.4%) subjects (%): 1 or more serious TEAE [1] | Serious TEAE: Psychiatric disorders [1]
37.1%: TEAE: nausea (84 mg, double-blind phase)
34.3%: TEAE: dizziness (84 mg, double-blind phase)
0 subjects (%): TEAE leading to death [1] | TEAE leading to study discontinuation: Dissociative disorder [1]
(31.4%): TEAE Dissociation, % of subjects [1] | TEAE Dysgeusia, % of subjects [1] | TEAE Headache, % of subjects [1]
(2.9%): TEAE Flatulence, % of subjects [1] | TEAE Infections and infestations, % of subjects [1] | TEAE Nasal congestion, % of subjects [1] | TEAE Rash, % of subjects [1] | TEAE Renal and urinary disorders, % of subjects [1]
(14.3%): TEAE Investigations, % of subjects [1] | TEAE Skin and subcutaneous tissue disorders, % of subjects [1]
(71.4%): TEAE Nervous system disorders, % of subjects [1]
(17.1%): TEAE Anxiety, % of subjects [1] | TEAE Paresthesia, % of subjects [1] | TEAE Sedation, % of subjects [1]
31.4%: TEAE: dissociation (84 mg, double-blind phase) | TEAE: dysgeusia (84 mg, double-blind phase) | TEAE: headache (84 mg, double-blind phase)
(25.7%): TEAE Ear and labyrinth disorders, % of subjects [1] | TEAE Respiratory, thoracic and mediastinal disorders, % of subjects [1]
33 (94.3%) subjects (%): TEAE [1]
9: TEAE Ear and labyrinth disorders, no. subjects [1] | TEAE Respiratory, thoracic and mediastinal disorders, no. subjects [1]
(34.3%): TEAE Dizziness, % of subjects [1]
2: TEAE Acne, no. subjects [1] | TEAE Blood pressure increased, no. subjects [1] | TEAE Diplopia, no. subjects [1] | TEAE Dizziness postural, no. subjects [1] | TEAE Fatigue, no. subjects [1] | TEAE Feeling cold, no. subjects [1] | TEAE Hyperacusis, no. subjects [1] | TEAE Hyperhidrosis, no. subjects [1] | TEAE Hypoesthesia oral, no. subjects [1] | TEAE Oropharyngeal pain, no. subjects [1] | TEAE Paresthesia oral, no. subjects [1] | TEAE Pharyngeal hypoesthesia, no. subjects [1] | TEAE Suicidal ideation, no. subjects [1] | TEAE Tinnitus, no. subjects [1] | TEAE Weight increased, no. subjects [1]
1: TEAE Flatulence, no. subjects [1] | TEAE Infections and infestations, no. subjects [1] | TEAE Nasal congestion, no. subjects [1] | TEAE Rash, no. subjects [1] | TEAE Renal and urinary disorders, no. subjects [1]
(28.6%): TEAE General disorders and administration site conditions, % of subjects [1]
0: TEAE Abdominal pain, no. subjects [1] | TEAE Blepharospasm, no. subjects [1] | TEAE Constipation, no. subjects [1] | TEAE Epistaxis, no. subjects [1] | TEAE Intranasal paranesthesia, no. subjects [1] | TEAE Panic attack, no. subjects [1] | TEAE Pollakiuria, no. subjects [1] | TEAE Rhinalgia, no. subjects [1] | TEAE Rhinorrhoea, no. subjects [1] | TEAE Toothache, no. subjects [1] | TEAE Upper respiratory tract infection, no. subjects [1]
12: TEAE Dizziness, no. subjects [1]
5 (14.3%) subjects (%): TEAE leading to drug withdrawn [1]
(37.1%): TEAE Nausea, % of subjects [1]
1 subjects: Subjects with a serious adverse event (84 mg group, follow up phase)
3: TEAE Agitation, no. subjects [1] | TEAE Diarrhea, no. subjects [1] | TEAE Dry mouth, no. subjects [1] | TEAE Feeling abnormal, no. subjects [1] | TEAE Hypoesthesia, no. subjects [1] | TEAE Insomnia, no. subjects [1] | TEAE Nasal discomfort, no. subjects [1] | TEAE Throat irritation, no. subjects [1] | TEAE Vision blurred, no. subjects [1]
20: TEAE Psychiatric disorders, no. subjects [1]
10: TEAE General disorders and administration site conditions, no. subjects [1]
(5.7%): TEAE Acne, % of subjects [1] | TEAE Blood pressure increased, % of subjects [1] | TEAE Diplopia, % of subjects [1] | TEAE Dizziness postural, % of subjects [1] | TEAE Fatigue, % of subjects [1] | TEAE Feeling cold, % of subjects [1] | TEAE Hyperacusis, % of subjects [1] | TEAE Hyperhidrosis, % of subjects [1] | TEAE Hypoesthesia oral, % of subjects [1] | TEAE Oropharyngeal pain, % of subjects [1] | TEAE Paresthesia oral, % of subjects [1] | TEAE Pharyngeal hypoesthesia, % of subjects [1] | TEAE Suicidal ideation, % of subjects [1] | TEAE Tinnitus, % of subjects [1] | TEAE Weight increased, % of subjects [1]
(8.6%): TEAE Agitation, % of subjects [1] | TEAE Diarrhea, % of subjects [1] | TEAE Dry mouth, % of subjects [1] | TEAE Feeling abnormal, % of subjects [1] | TEAE Hypoesthesia, % of subjects [1] | TEAE Insomnia, % of subjects [1] | TEAE Nasal discomfort, % of subjects [1] | TEAE Throat irritation, % of subjects [1] | TEAE Vision blurred, % of subjects [1]
(54.3%): TEAE Gastrointestinal disorders, % of subjects [1]
7: TEAE Eye disorders, no. subjects [1] | TEAE Vomiting, no. subjects [1]
